In DBAASP:
Converted amounts (≈) assume the structure as drawn. Each block holds one compound with its values, some of them ahead of it.

Columns and labels:
Assay in all cases: ≥ marks a high value that may be exact or a test limit, other limits are often not marked, values filed in µg/mL are converted to µM
[1] = system: Escherichia coli K12 MG1655
[2] = system: Candida albicans NCYC 1467
[3] = system: Enterococcus faecalis NCTC 12697
[4] = system: Escherichia coli NCTC 10418
[5] = system: Pseudomonas aeruginosa ATCC 27853
[6] = system: Staphylococcus aureus NCTC 10788
[7] = system: Staphylococcus aureus NCTC 12493
[8] = system: Staphylococcus aureus USA 100
Botrytis cinerea = system: Botrytis cinerea
[9] = system: Candida albicans ATCC 10231
[10] = system: Escherichia coli ATCC 11775
[11] = system: Staphylococcus aureus ATCC 12600
[12] = system: Streptococcus mutans UA159
[13] = system: Candida albicans ATCC 90028
[14] = system: Pseudomonas aeruginosa ATCC 9027
[15] = system: Staphylococcus aureus USA 300
[16] = system: Staphylococcus aureus ATCC BAA-1556
[17] = system: Bacillus cereus ATCC 11778
[18] = system: Escherichia coli ATCC 35218
[19] = system: Staphylococcus aureus ATCC 25923
[20] = system: Bacillus subtilis ATCC 6633
[21] = system: Escherichia coli ATCC 25922
[22] = system: Klebsiella pneumoniae ATCC 10031
[23] = system: Micrococcus luteus ATCC 10240
[24] = system: Salmonella enterica subsp. enterica serovar Typhimurium ATCC 14028
[25] = system: Shigella dysenteriae ATCC 9752
[26] = system: Staphylococcus aureus ATCC 6538P
Escherichia coli BW25113 = system: Escherichia coli BW25113

SMILES: C[C@H](N)C(=O)N[C@@H](CCCN=C(N)N)C(=O)N[C@@H](C)C(=O)N[C@@H](CCCN=C(N)N)C(N)=O [ARAR]
MIC [8]: ≥ 100 µM

SMILES: NCCCC[C@H](NC(=O)[C@H](Cc1cnc[nH]1)NC(=O)CN)C(=O)O [GHK]
MIC [13]: ≥ 100 µM
MIC [14]: > 100 µM
MIC [8]: ≥ 100 µM
MIC [15]: ≥ 100 µM

SMILES: CC(C)C[C@H](NC(=O)[C@H](Cc1c[nH]c2ccccc12)NC(=O)[C@H](CCCCN)NC(=O)[C@H](CC(C)C)NC(=O)[C@H](CC(C)C)NC(=O)[C@H](CCCCN)NC(=O)[C@@H](N)CCCCN)C(N)=O [KKLLKWL]
MIC [16]: ≥ 100 µM

SMILES: CC(C)C[C@H](NC(=O)[C@H](CC(C)C)NC(=O)[C@@H](NC(=O)[C@@H](N)CCCCN)[C@@H](C)O)C(=O)N[C@@H](CCCCN)C(=O)N[C@@H](CCCCN)C(=O)N[C@H](C(=O)N[C@@H](CC(C)C)C(=O)N[C@@H](CCCCN)C(=O)N[C@@H](C)C(=O)N[C@@H](C)C(=O)N[C@@H](C)C(N)=O)C(C)C [KTLLKKVLKAAA]
MIC [17]: ≥ 50 µM
MIC [18]: ≥ 50 µM
MIC [14]: > 50 µM
MIC [19]: > 50 µM

SMILES: CC(C)C[C@H](NC(=O)[C@H](Cc1c[nH]c2ccccc12)NC(=O)[C@H](CCCCN)NC(=O)[C@H](CCCCN)NC(=O)[C@@H](N)CC(C)C)C(=O)N[C@@H](CCCCN)C(=O)N[C@@H](CCCCN)C(N)=O [LKKWLKK]
MIC [20]: ≥ 212 µM
MIC [21]: > 212 µM
MIC [22]: ≥ 212 µM
MIC [23]: ≥ 106 µM
MIC [5]: > 212 µM
MIC [24]: > 212 µM
MIC [25]: ≥ 212 µM
MIC [26]: ≥ 212 µM

SMILES: CC(C)C[C@H](NC(=O)[C@H](Cc1c[nH]c2ccccc12)NC(=O)[C@H](CCCN=C(N)N)NC(=O)[C@H](CC(C)C)NC(=O)[C@H](Cc1c[nH]c2ccccc12)NC(=O)[C@H](CC(C)C)NC(=O)[C@H](CC(C)C)NC(=O)[C@H](Cc1c[nH]c2ccccc12)NC(=O)[C@@H](N)CC(C)C)C(N)=O [LWLLWLRWL]
MIC [16]: 3.12 µM (≈ 4.06 µg/mL)

SMILES: C[C@@H](O)[C@H](N)C(=O)N[C@@H](CCCN=C(N)N)C(=O)N[C@H](C(=O)N[C@@H](CCCN=C(N)N)C(N)=O)[C@@H](C)O [TRTR]
MIC [8]: ≥ 100 µM

SMILES: CC(=O)N[C@@H](Cc1c[nH]c2ccccc12)C(=O)N[C@@H](Cc1c[nH]c2ccccc12)C(=O)N[C@@H](CC(C)C)C(=O)N[C@@H](Cc1c[nH]c2ccccc12)C(=O)N[C@@H](Cc1c[nH]c2ccccc12)C(=O)N[C@@H](CC(C)C)C(=O)N[C@@H](CCCN=C(N)N)C(=O)N[C@@H](Cc1c[nH]c2ccccc12)C(=O)N[C@@H](CC(C)C)C(N)=O [WWLWWLRWL]
MIC [16]: 25 µM (≈ 37.1 µg/mL)

SMILES: CC(C)C[C@H](NC(=O)[C@H](Cc1c[nH]c2ccccc12)NC(=O)[C@H](Cc1c[nH]c2ccccc12)NC(=O)[C@H](CC(C)C)NC(=O)[C@H](Cc1c[nH]c2ccccc12)NC(=O)[C@@H](N)Cc1c[nH]c2ccccc12)C(=O)N[C@@H](Cc1c[nH]c2ccccc12)C(=O)N[C@@H](Cc1c[nH]c2ccccc12)C(=O)N[C@@H](CCCN=C(N)N)C(N)=O [WWLWWLWWR]
MIC [16]: 3.12 µM (≈ 4.74 µg/mL)

Next, values leading:

MIC [1]: ≥ 71.1 µM
SMILES: CC[C@H](C)[C@H](NC(=O)[C@H](CC(C)C)NC(=O)[C@H](Cc1ccc(O)cc1)NC(=O)[C@H](CC(C)C)NC(=O)[C@H](CC(C)C)NC(=O)[C@H](CC(C)C)NC(=O)[C@H](CCCN=C(N)N)NC(=O)[C@H](CC(C)C)NC(=O)[C@H](CCCN=C(N)N)NC(=O)[C@H](C)NC(=O)[C@H](C)NC(=O)[C@H](C)N)C(=O)N[C@H](C(=O)N[C@@H](CCCN=C(N)N)C(=O)N[C@@H](CCCN=C(N)N)C(=O)O)[C@@H](C)O [AAARLRLLLYLITRR]

MIC [2]: 16 µM (≈ 40.6 µg/mL)
MIC [3]: ≥ 32 µM
MIC [4]: 16 µM (≈ 40.6 µg/mL)
MIC [5]: 64 µM (≈ 162 µg/mL)
MIC [6]: ≥ 32 µM
MIC [7]: ≥ 512 µM
SMILES: CC[C@H](C)[C@H](NC(=O)[C@H](CCC(=O)O)NC(=O)[C@H](CC(N)=O)NC(=O)[C@H](CC(C)C)NC(=O)[C@H](C)NC(=O)[C@H](C)NC(=O)[C@H](CCCCN)NC(=O)CNC(=O)[C@H](C)NC(=O)[C@H](CC(N)=O)NC(=O)[C@H](CCCCN)NC(=O)[C@H](CC(C)C)NC(=O)[C@@H](NC(=O)[C@H](CCC(=O)O)NC(=O)[C@H](CCCCN)NC(=O)[C@H](Cc1c[nH]c2ccccc12)NC(=O)[C@H](CC(C)C)NC(=O)[C@H](C)N)C(C)C)C(=O)N[C@@H](CC(N)=O)C(=O)N[C@@H](CC(N)=O)C(=O)N[C@@H](CC(C)C)C(=O)N[C@H](C(=O)N[C@@H](CCC(N)=O)C(N)=O)C(C)C [ALWKEVLKNAGKAALNEINNLVQ]

MIC (Botrytis cinerea): 0.334 µM (≈ 0.5 µg/mL)
MIC [9]: 66.8 µM (≈ 99.9 µg/mL)
MIC [10]: ≥ 66.8 µM
MIC [11]: ≥ 66.8 µM
SMILES: CC[C@H](C)[C@H](NC(=O)CNC(=O)[C@H](CC(C)C)NC(=O)[C@@H](NC(=O)[C@@H]1CCCN1C(=O)[C@@H](N)CCC(=O)O)[C@@H](C)CC)C(=O)N[C@H](C(=O)N[C@H](C(=O)N[C@@H](CO)C(=O)N[C@@H](CC(C)C)C(=O)N[C@@H](CC(C)C)C(=O)N[C@@H](CCCCN)C(=O)N[C@@H](CO)C(=O)N[C@@H](CC(C)C)C(N)=O)[C@@H](C)O)[C@@H](C)CC [EPILGIITSLLKSL]

MIC [12]: 8.48 µM (≈ 22.1 µg/mL)
SMILES: CC[C@H](C)[C@H](NC(=O)[C@H](CCCN=C(N)N)NC(=O)[C@H](C)NC(=O)[C@H](Cc1ccccc1)NC(=O)[C@H](Cc1ccccc1)NC(=O)[C@H](CCCCN)NC(=O)[C@H](CCCN=C(N)N)NC(=O)[C@H](CC(C)C)NC(=O)[C@@H](NC(=O)[C@H](CCCCN)NC(=O)[C@@H]1CCCN1C(=O)[C@H](CC(C)C)NC(=O)[C@@H](N)Cc1ccccc1)[C@@H](C)O)C(=O)N[C@@H](CCCN=C(N)N)C(=O)NCC(=O)NCC(=O)N[C@@H](CCCN=C(N)N)C(=O)N[C@@H](C)C(=O)N[C@@H](C)C(=O)N[C@H](C(=O)N[C@@H](CC(C)C)C(=O)N[C@@H](CC(N)=O)C(=O)N[C@@H](C)C(=O)O)C(C)C [FLPKTLRKFFARIRGGRAAVLNA]

MIC (Botrytis cinerea): 9.65 µM (≈ 15 µg/mL)
MIC [9]: 6.44 µM (≈ 9.99 µg/mL)
MIC [10]: ≥ 64.4 µM
MIC [11]: ≥ 64.4 µM
SMILES: CC[C@H](C)[C@H](NC(=O)[C@H](Cc1ccccc1)NC(=O)[C@H](CO)NC(=O)[C@H](CC(C)C)NC(=O)[C@@H](NC(=O)[C@H](CCCN=C(N)N)NC(=O)CN)[C@@H](C)CC)C(=O)N[C@@H](CCCCN)C(=O)NCC(=O)N[C@@H](CC(C)C)C(=O)N[C@@H](C)C(=O)N[C@@H](CCC(=O)O)C(=O)N[C@@H](Cc1cnc[nH]1)C(=O)N[C@@H](CC(C)C)C(N)=O [GRILSFIKGLAEHL]

MIC (Escherichia coli BW25113): 4 µM (≈ 9.52 µg/mL)
SMILES: CC[C@H](C)[C@H](NC(=O)[C@@H]1CCCN1C(=O)[C@H](CCCN=C(N)N)NC(=O)[C@H](CCCN=C(N)N)NC(=O)[C@H](Cc1c[nH]c2ccccc12)NC(=O)[C@@H](N)CCCN=C(N)N)C(=O)N[C@@H](CCCN=C(N)N)C(=O)N[C@@H](CCCN=C(N)N)C(=O)N[C@@H](CCCN=C(N)N)C(=O)N1CCC[C@H]1C(=O)N[C@H](C(=O)N[C@@H](CCCN=C(N)N)C(=O)N1CCC[C@H]1C(=O)N1CCC[C@H]1C(=O)N[C@@H](Cc1ccccc1)C(=O)N[C@@H](Cc1ccc(O)cc1)C(=O)N[C@@H](CCCN=C(N)N)C(=O)O)[C@@H](C)CC [RWRRPIRRRPIRPPFYR]

MIC (Escherichia coli BW25113): 4 µM (≈ 9.44 µg/mL)
SMILES: CC[C@H](C)[C@H](NC(=O)[C@@H]1CCCN1C(=O)[C@H](CCCN=C(N)N)NC(=O)[C@H](CCCN=C(N)N)NC(=O)[C@H](Cc1c[nH]c2ccccc12)NC(=O)[C@@H](N)CCCN=C(N)N)C(=O)N[C@@H](CCCN=C(N)N)C(=O)N[C@@H](CCCN=C(N)N)C(=O)N[C@@H](CCCN=C(N)N)C(=O)N1CCC[C@H]1C(=O)N[C@H](C(=O)N[C@@H](CCCN=C(N)N)C(=O)N1CCC[C@H]1C(=O)N1CCC[C@H]1C(=O)N[C@@H](Cc1c[nH]c2ccccc12)C(=O)N[C@@H](Cc1ccc(O)cc1)C(=O)N1CCC[C@H]1C(=O)O)[C@@H](C)CC [RWRRPIRRRPIRPPWYP]
